Measured values as given in PubChem BioAssay (NCI).
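Following 48 hours of exposure in 96-well plates, responses at five concentrations were used to interpolate endpoints linearly. The concentration for full growth arrest is given as TGI.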

Experiments:
Experiment in all cases: growth of human tumour cells (NCI), 48 h
UACC-62 melanoma = system: UACC-62 melanoma
HOP-18 NSCLC = system: HOP-18 NSCLC
NCI-H460 lung = system: NCI-H460 lung
OVCAR-8 ovarian = system: OVCAR-8 ovarian
RXF-631 renal = system: RXF-631 renal
OVCAR-4 ovarian = system: OVCAR-4 ovarian
SF-539 CNS = system: SF-539 CNS
DMS 273 small cell lung = system: DMS 273 small cell lung
SF-295 CNS = system: SF-295 CNS
NCI-H522 lung = system: NCI-H522 lung
SK-MEL-2 melanoma = system: SK-MEL-2 melanoma
DLD-1 colon = system: DLD-1 colon
SN12C renal = system: SN12C renal
CCRF-CEM leukemia = system: CCRF-CEM leukemia
SK-MEL-5 melanoma = system: SK-MEL-5 melanoma
OVCAR-5 ovarian = system: OVCAR-5 ovarian
NCI-H226 lung = system: NCI-H226 lung
SNB-78 CNS = system: SNB-78 CNS
HOP-62 NSCLC = system: HOP-62 NSCLC
A549 NSCLC = system: A549 NSCLC
LXFL 529 NSCLC = system: LXFL 529 NSCLC
SW-620 colon = system: SW-620 colon
XF 498 CNS = system: XF 498 CNS
ACHN renal = system: ACHN renal
HCT-116 colon = system: HCT-116 colon
A498 renal = system: A498 renal
MOLT-4 leukemia = system: MOLT-4 leukemia
KM20L2 colon = system: KM20L2 colon
M14 melanoma = system: M14 melanoma
HCT-15 colon = system: HCT-15 colon
786-0 renal = system: 786-0 renal
CAKI-1 renal = system: CAKI-1 renal
RXF 393 renal = system: RXF 393 renal
OVCAR-3 ovarian = system: OVCAR-3 ovarian
TK-10 renal = system: TK-10 renal
UO-31 renal = system: UO-31 renal
LOX IMVI melanoma = system: LOX IMVI melanoma
MALME-3M melanoma = system: MALME-3M melanoma
RPMI-8226 leukemia = system: RPMI-8226 leukemia
U251 CNS = system: U251 CNS
COLO 205 colon = system: COLO 205 colon
UACC-257 melanoma = system: UACC-257 melanoma
IGROV1 ovarian = system: IGROV1 ovarian
SK-MEL-28 melanoma = system: SK-MEL-28 melanoma
KM12 colon = system: KM12 colon
DMS 114 small cell lung = system: DMS 114 small cell lung
NCI-H23 lung = system: NCI-H23 lung
SR leukemia = system: SR leukemia
HL-60(TB) leukemia = system: HL-60(TB) leukemia
K-562 leukemia = system: K-562 leukemia
EKVX NSCLC = system: EKVX NSCLC
SNB-19 CNS = system: SNB-19 CNS
HCC-2998 colon = system: HCC-2998 colon
HOP-92 NSCLC = system: HOP-92 NSCLC
SNB-75 CNS = system: SNB-75 CNS
SF-268 CNS = system: SF-268 CNS
SK-OV-3 ovarian = system: SK-OV-3 ovarian
HT29 colon = system: HT29 colon
M19-MEL melanoma = system: M19-MEL melanoma

With `C=CC1(c2ccccc2Cl)N/C(=C/OCC)CO1` (centres undefined) the TGI (UACC-62 melanoma) was greater than 100 µM, the TGI (HOP-18 NSCLC) was greater than 100 µM and the TGI (NCI-H460 lung) was greater than 100 µM. It also gave a TGI (OVCAR-8 ovarian) greater than 100 µM, a TGI (RXF-631 renal) greater than 100 µM and a TGI (OVCAR-4 ovarian) greater than 100 µM. It also gave a TGI (SF-539 CNS) greater than 100 µM, a TGI (DMS 273 small cell lung) greater than 100 µM and a TGI (SF-295 CNS) greater than 100 µM. For the same compound, the TGI (NCI-H522 lung) was greater than 100 µM, the TGI (SK-MEL-2 melanoma) was greater than 100 µM and the TGI (DLD-1 colon) was greater than 100 µM. It also gave a TGI (SN12C renal) greater than 100 µM, a TGI (CCRF-CEM leukemia) greater than 100 µM and a TGI (SK-MEL-5 melanoma) greater than 100 µM. It also gave a TGI (OVCAR-5 ovarian) greater than 100 µM, a TGI (NCI-H226 lung) greater than 100 µM and a TGI (SNB-78 CNS) greater than 100 µM. For the same compound, the TGI (HOP-62 NSCLC) was greater than 100 µM, the TGI (A549 NSCLC) was greater than 100 µM and the TGI (LXFL 529 NSCLC) was greater than 100 µM. The TGI (SW-620 colon) was 28.4 µM, the TGI (XF 498 CNS) was greater than 100 µM and the TGI (ACHN renal) was greater than 100 µM. For the same compound, the TGI (HCT-116 colon) was greater than 100 µM, the TGI (A498 renal) was greater than 100 µM and the TGI (MOLT-4 leukemia) was greater than 100 µM. It also gave a TGI (KM20L2 colon) greater than 100 µM, a TGI (M14 melanoma) greater than 100 µM and a TGI (HCT-15 colon) greater than 100 µM. The TGI (786-0 renal) was greater than 100 µM, the TGI (CAKI-1 renal) was greater than 100 µM and the TGI (RXF 393 renal) was greater than 100 µM. It also gave a TGI (OVCAR-3 ovarian) greater than 100 µM, a TGI (TK-10 renal) greater than 100 µM and a TGI (UO-31 renal) greater than 100 µM. It also gave a TGI (LOX IMVI melanoma) of 55.3 µM, a TGI (MALME-3M melanoma) greater than 100 µM and a TGI (RPMI-8226 leukemia) of 65 µM. The TGI (U251 CNS) was greater than 100 µM, the TGI (COLO 205 colon) was greater than 100 µM and the TGI (UACC-257 melanoma) was greater than 100 µM. The TGI (IGROV1 ovarian) was greater than 100 µM, the TGI (SK-MEL-28 melanoma) was greater than 100 µM and the TGI (KM12 colon) was greater than 100 µM. For the same compound, the TGI (DMS 114 small cell lung) was greater than 100 µM, the TGI (NCI-H23 lung) was greater than 100 µM and the TGI (SR leukemia) was greater than 100 µM. It also gave a TGI (HL-60(TB) leukemia) greater than 100 µM, a TGI (K-562 leukemia) greater than 100 µM and a TGI (EKVX NSCLC) greater than 100 µM. For the same compound, the TGI (SNB-19 CNS) was greater than 100 µM, the TGI (HCC-2998 colon) was greater than 100 µM and the TGI (HOP-92 NSCLC) was greater than 100 µM. The TGI (SNB-75 CNS) was greater than 100 µM, the TGI (SF-268 CNS) was greater than 100 µM and the TGI (SK-OV-3 ovarian) was greater than 100 µM. For the same compound, the TGI (HT29 colon) was greater than 100 µM and the TGI (M19-MEL melanoma) was greater than 100 µM.
